From patent US20250011363A1, “OPTIMIZED SHORTENED PEPTIDE THAT BINDS TO ACETYLCHOLINE RECEPTOR, AND USE THEREOF” (SKINMED CO., LTD., priority 2021, published 2025) come the findings set out here.

The target in data set [1] is T1, acetylcholine receptor (Homo sapiens, UniProt P02708). The data set can be described thus: SPR binding affinity (RU) of optimized 5mer/6mer/7mer peptides, Examples 6-7. Conditions: for Binding affinity, values relative to the RRGVRR sequence / Binding affinity (RU) / Binding affinity: SPR; for Binding affinity, values relative to the RRGVRR sequence: XRRGVRR-7mer and RRGVRRX-7mer; for Binding affinity (RU): peptides at 10 μM; for Binding affinity: peptides tested at 10 μM. Summed up: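 Synthetic 5mer and 6mer peptides, built from frequent or infrequent amino-acid combinations, were tested at 10 μM for binding to the human acetylcholine receptor by surface plasmon resonance. Binding is reported in response units (RU).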

Data set [2] has as its target T2, Acetylcholine receptor-overexpressing TE671 cells (Homo sapiens, UniProt P02708).
T2 construct: endogenous in cells; host or cells: TE671 cells
The data set can be described thus: Calcium imaging (Fura-2-AM) of nicotine response, acetylcholine receptor inhibition. It is filed as cell-based. The note with it: for inhibition at 1 µM: TE-671; for concentration at which acetylcholine receptors were inhibited: TE671 cells, nicotine 400 uM, calcium imaging. How it is done: Acetylcholine receptor-overexpressing TE671 cells were cultured at 37° C. in DMEM medium supplemented with 10% FBS and 1% P/S under 5% CO2. After the TE671 cells were sufficiently grown for 4 days, the cells were detached using trypsin and the cell culture was plated in an amount of 1 ml at a density of 2×10^4 cells/well into 12-well cell culture plate with an 18 mm cover-slip lined therein, and cultured for 4 days.
The cover-slip on which the cells had grown was transferred to a fresh 12-well cell culture plate, and 997 μl of HBSS buffer and 3 μl of Fura-2-AM were added and gently mixed, followed by incubation at 37° C., 5% CO2 for 15 minutes. After incubation, the remaining Fura-2-AM was removed by washing 3-4 times with 1 ml of HBSS buffer, and an additional 1 ml was added. The cover-slip with the grown cells was placed in a chamber, and 500 μl of HBSS buffer was dispensed. The final concentration of nicotine was adjusted to 400 µM to observe the calcium imaging reaction. Then, while keeping the nicotine concentration fixed, the concentration of the sample was adjusted to find the inhibiting concentration.
The inhibitory ability of the Palmitate-6mer-1-43 and Palmitate-5mer-73 peptides on the acetylcholine receptor was examined in the same manner as in Example 6. Additionally, the inhibitory ability (IC50) of the optimized short peptides and the palmitate-modified peptides according to the present disclosure against acetylcholine receptor was compared with Synake and is depicted in FIG. 16.

In data set [3] the test system is dermal fibroblast cells isolated from human skin. Conditions: 100 nM to 100 μM, 24 hours.
Experimental: The optimized shortened peptides according to the present disclosure were assayed for cytotoxicity. In this regard, the cytotoxicity was assessed by the MTT [(3-(4,5-dimethylthiazol-2-yl)-2,5-diphenyltetrazolium bromide] method using dermal fibroblast cells isolated from human skin. The pre-cultured cells were seeded at a concentration of 1×10^5 cells/mL in a 24-well plate and cultured for 18 hours. Subsequently, the medium was removed and the diluted sample was added to the medium free of FBS and incubated for 24 hours, after which the medium was removed and MTT solution was added at a concentration of 1 μg/mL and reacted for 3 hours. Unreacted MTT was removed, and DMSO 100 μL was added to dissolve the formed formazan, and the absorbance at 540 nm was read on an ELISA reader.
Data set [4] concerns the target T1, acetylcholine receptor. The data set is described as follows: SPR (Biacore) affinity of shortened Espep2 peptides, Examples 1-2. It is filed as binding. Conditions: for higher affinity compared to Synake: SPR, FIG. 1. How it is done: To construct an optimized shortened library from the previous Espep2 peptide, assessment was made of the affinity of peptides having sequences sequentially removed from the N- and C-terminals. Initially, surface plasmon resonance (SPR) experiments were conducted using a biosensor chip (Biacore3000, Biacore AB, Uppsala, Sweden). Selected acetylcholine receptor proteins were immobilized on a CM5 chip (Biacore) using EDC/NHS and observed for association and dissociation for up to 500 seconds. The observation conditions were set forth as follows: running buffer 20 mM Tris (pH 7.4), rate 30 ul/min, concentration 20 μM (peptide), and the results are depicted in FIG. 1.
To identify the crucial sequences in the shortened peptides, alanine scanning was conducted. Wild-type (WT) Espep2-6mer (RKSLLR) and Espep2-5mer (KSLLR) peptides were synthesized with each amino acid sequentially substituted with alanine (Ala, A), and their affinity was measured using the same method as in Example 1. The measurements are depicted in FIG. 2 after normalization to WT.
Moreover, among the six amino acids in the RKSLLR sequence, R residues at the N and C terminals are crucial.

For data set [5], the target named is T1, acetylcholine receptor. The data set is described as above. Conditions: FIG. 3. The class given is binding.

Where two headings read alike, the source gives them in different places. Residues, ends and D or L forms follow the SMILES beside them. No end group written: not given here. *: point of attachment. Palmitoyl = CCCCCCCCCCCCCCCC(=O)*

T1 sequence (P02708 21-457): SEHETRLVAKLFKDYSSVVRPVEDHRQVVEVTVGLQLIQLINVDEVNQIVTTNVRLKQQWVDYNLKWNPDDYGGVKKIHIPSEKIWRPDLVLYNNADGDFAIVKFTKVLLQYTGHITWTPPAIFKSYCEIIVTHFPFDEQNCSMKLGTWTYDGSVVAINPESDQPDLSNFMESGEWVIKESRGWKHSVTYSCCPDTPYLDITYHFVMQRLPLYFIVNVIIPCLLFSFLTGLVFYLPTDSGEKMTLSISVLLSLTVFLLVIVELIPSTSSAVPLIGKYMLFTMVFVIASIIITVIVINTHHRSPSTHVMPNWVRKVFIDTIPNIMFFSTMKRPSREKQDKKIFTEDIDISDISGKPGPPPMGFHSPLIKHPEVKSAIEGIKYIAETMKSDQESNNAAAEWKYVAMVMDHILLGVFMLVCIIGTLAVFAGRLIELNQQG
T2 sequence (P07510 23-517): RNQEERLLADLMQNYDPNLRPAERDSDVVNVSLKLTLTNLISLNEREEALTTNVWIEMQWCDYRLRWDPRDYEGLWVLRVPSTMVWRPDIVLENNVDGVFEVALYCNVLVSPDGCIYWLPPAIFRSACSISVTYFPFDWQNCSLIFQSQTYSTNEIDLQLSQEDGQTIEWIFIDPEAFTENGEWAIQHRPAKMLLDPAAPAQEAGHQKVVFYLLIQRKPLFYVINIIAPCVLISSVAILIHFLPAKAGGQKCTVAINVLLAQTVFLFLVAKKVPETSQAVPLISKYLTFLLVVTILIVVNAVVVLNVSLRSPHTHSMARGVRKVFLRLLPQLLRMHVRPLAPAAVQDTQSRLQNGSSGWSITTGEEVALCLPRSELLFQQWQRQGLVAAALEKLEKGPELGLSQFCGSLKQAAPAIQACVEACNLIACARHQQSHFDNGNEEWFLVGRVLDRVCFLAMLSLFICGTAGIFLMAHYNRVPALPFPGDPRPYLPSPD
T2 sequence (P11230 24-501, further chain): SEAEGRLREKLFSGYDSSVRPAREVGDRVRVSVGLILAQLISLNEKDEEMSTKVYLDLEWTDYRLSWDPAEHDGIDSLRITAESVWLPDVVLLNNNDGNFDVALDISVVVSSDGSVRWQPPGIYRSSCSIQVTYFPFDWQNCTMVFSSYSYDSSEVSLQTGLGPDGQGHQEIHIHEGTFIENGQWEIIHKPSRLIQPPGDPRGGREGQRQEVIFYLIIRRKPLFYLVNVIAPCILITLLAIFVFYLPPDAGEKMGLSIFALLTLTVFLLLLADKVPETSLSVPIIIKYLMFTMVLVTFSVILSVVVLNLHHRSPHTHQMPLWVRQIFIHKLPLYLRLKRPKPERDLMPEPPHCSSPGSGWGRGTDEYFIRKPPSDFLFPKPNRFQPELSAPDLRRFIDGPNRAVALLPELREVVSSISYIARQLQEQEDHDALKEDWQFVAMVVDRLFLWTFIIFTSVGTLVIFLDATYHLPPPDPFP
T2 sequence (Q07001 22-517, further chain): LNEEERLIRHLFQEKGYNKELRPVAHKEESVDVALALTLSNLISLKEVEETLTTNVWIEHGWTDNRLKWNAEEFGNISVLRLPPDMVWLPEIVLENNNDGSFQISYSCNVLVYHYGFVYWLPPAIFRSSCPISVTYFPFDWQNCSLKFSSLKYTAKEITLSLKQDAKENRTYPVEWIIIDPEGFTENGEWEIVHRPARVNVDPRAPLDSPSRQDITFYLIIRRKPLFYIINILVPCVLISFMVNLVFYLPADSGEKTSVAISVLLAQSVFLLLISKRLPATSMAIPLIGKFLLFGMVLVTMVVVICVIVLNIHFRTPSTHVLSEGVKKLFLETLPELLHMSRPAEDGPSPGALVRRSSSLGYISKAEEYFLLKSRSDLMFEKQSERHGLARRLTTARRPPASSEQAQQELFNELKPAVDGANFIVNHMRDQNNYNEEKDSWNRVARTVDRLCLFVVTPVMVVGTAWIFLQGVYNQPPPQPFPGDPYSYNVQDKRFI
T2 sequence (P02708 21-457): as the sequence (P02708 21-457) above

For 3675 (RRGVRRQ) [compound 3675], the “Binding affinity, values relative to the RRGVRR sequence” value with acetylcholine receptor [1] is recorded as 105.
Still for that read-out and setting: next, 3676 (RRGVRRK) [compound 3676]: 171; 3677 (RRGVRRR) [compound 3677]: 188; 3678 (RRGVRRH) [compound 3678]: 154.
Same read-out and setting: the value for 3679 (RRGVRRD) [compound 3679] was 61; that for 3680 (RRGVRRE) [compound 3680] was 33.
For `CCCCCCCCCCCCCCCC(=O)N[C@@H](CCCNC(=N)N)C(=O)N[C@@H](CCCNC(=N)N)C(=O)N[C@@H](CCC(N)=O)C(=O)N[C@@H](CCCNC(=N)N)C(=O)N[C@@H](CCCNC(=N)N)C(=O)O` [Pal-5mer-73] (Palmitoyl-RRQRR-OH; N-terminus and C-terminus assumed), in data set [2], the inhibition at 1 µM was found to be 100%. The “cytotoxicity (MTT)” value in data set [3] is reported as “non-toxic”.
On the same counts, the results for `CCCCCCCCCCCCCCCC(=O)N[C@@H](CCCNC(=N)N)C(=O)N[C@@H](CCCCN)C(=O)N[C@@H](CCCNC(=N)N)C(=O)N[C@H](C(=O)N[C@@H](CCCNC(=N)N)C(=O)N[C@@H](CCCNC(=N)N)C(=O)O)[C@@H](C)CC` [Pal-6mer-1-43] (Palmitoyl-RKRIRR-OH; N-terminus and C-terminus assumed) are 100% and “non-toxic”.
Take KGRKSLLR [Espep2-8mer, KGRKSLLR]: at acetylcholine receptor [4], binding was put at a Kd of 3.1 µM and the “higher affinity compared to Synake” value is listed as 740 times.
As to KSLLR [5mer-ND], in the data set with acetylcholine receptor [1], the “Binding affinity (RU)” value is 23 RU. The “binding affinity compared to Synake” value with acetylcholine receptor [5] is listed as “higher binding affinity than Synake”.
Consider KWRQKR [6mer-2-233], for which the “concentration at which acetylcholine receptors were inhibited” value in data set [2] was found to be 10 µM. For the same compound, the Binding affinity with acetylcholine receptor [1] (Resonance Units, 6mer-2 Top sequence (Table 12)) is recorded as 190 Ru. In addition, the “Binding affinity (RU)” value with acetylcholine receptor [1] was found to be 190 RU.
Take RKRIRR [6mer-1-43, RKRIRR]: the “concentration at which acetylcholine receptors were inhibited” value in data set [2] is 10 µM. For the same compound, at acetylcholine receptor [1], the Kd worked out at 609 nM and the “Binding affinity (RU)” value came to 548 RU. Also, the Binding affinity at acetylcholine receptor [1] (6mer-1 Top sequence (top combinations)) is listed as 548 Ru. For the same compound, in data set [3], the “cytotoxicity (MTT)” value is on record as “non-toxic”.
On to RKSLL [5mer-CD], for which, in the data set with acetylcholine receptor [5], the “binding affinity compared to Synake” value is “slightly lower binding affinity compared to Synake”.
Take RKSLLR [Espep2-6mer, RKSLLR]: at acetylcholine receptor [4], the affinity, expressed as Kd, was 57 µM and the “higher affinity compared to Synake” value is reported as 40 times. Further, the “Binding affinity (RU)” value on acetylcholine receptor [1] is 35 RU. In addition, at acetylcholine receptor [5], the “binding affinity compared to Synake” value is on record as “higher affinity than that of Synake”. This compound also had an RU value at acetylcholine receptor [5] (peptide 20 μM) of 177 RU.
Regarding RRGVRR [6mer-1-210], the “concentration at which acetylcholine receptors were inhibited” value in data set [2] amounted to 10 µM. Moreover, in the data set with acetylcholine receptor [1] (6mer-1 Top sequence), the Binding affinity is on record as 184 Ru. The “Binding affinity (RU)” value with acetylcholine receptor [1] came out at 184 RU.
With RRQRR [5mer-73, RRQRR], the “cytotoxicity (MTT)” value in data set [3] is given as “non-toxic”. The same compound yielded a skin permeability (after 8 hours, 37° C.) of 66.87%.
As to RSYSR [5mer-311], the “concentration at which acetylcholine receptors were inhibited” value in data set [2] was found to be 10 µM. Moreover, in the data set with acetylcholine receptor [1], the “Binding affinity (RU)” value worked out at 167 RU. In addition, the Binding affinity with acetylcholine receptor [1] (5mer Top sequence) is reported as 167 Ru.
Consider RWRYKR [6mer-2-136], for which the “concentration at which acetylcholine receptors were inhibited” value in data set [2] was determined as 10 µM. Moreover, the Binding affinity with acetylcholine receptor [1] (6mer-2 Top sequence) was found to be 194 Ru. The “Binding affinity (RU)” value with acetylcholine receptor [1] came to 194 RU.
As to “WTWKGRKSLLR [Espep2-11mer, WTWKGRKSLLR, reference compound]”, at acetylcholine receptor [4], the dissociation constant Kd was found to be 1.2 µM and the “higher affinity compared to Synake” value was determined as 1916 times. Also, the “concentration at which acetylcholine receptors were inhibited” value in data set [2] was found to be 5 µM. Under “sampled up to 24 hours”, the “skin permeability” value is “did not permeate at all”.
